# Measurements from patent US8066979B1, “Attractants and repellents for the tropical root weevil Diaprepes Abbreviatus” (The United States of America as represented by the …, priority 2007, dated 2011).
# Experiments:
# D. abbreviatus antennae = test: Electroantennography (EAG) recordings; set-up: species or system Diaprepes abbreviatus; conditions: for EAGs compared on the same antenna (enantiomer/racemate comparison): n=3, paired Wilcoxon test; for Mean EAG of the weevil antenna to the standard: diluted 1000-fold in hexane, mean±SE, n=30; for antenna sensory threshold: amount in stimulus cartridge; for EAG dose-response curve at the two higher stimulus loads: 10 μg and 100 μg
# Procedure: Electroantennography (EAG) recordings: For EAGs, an adult weevil antenna was mounted between two electrodes as described above for GC-EAD recordings. EAGs were analyzed using EAG 2.3 software (Syntech).
# The following chemicals were serially diluted (ca. 0.01-100 μg) in hexane and tested separately on the antenna: cis-3-hexen-1-ol, trans-2-hexen-1-ol, (±)-linalool, (R)-(−)-linalool, (R)-(+)-citronellal, (S)-(−)-citronellal, cis-geraniol (nerol), trans-geraniol, cis-citral (neral), trans-citral (geranial), and carvacrol. Citral isomers were tested together in a blend. In order to compare activity of (±)-linalool and (R)-(−)-linalool ([…] was not available) as well as (R)-(+)-citronellal and (S)-(−)-citronellal, the enantiomers were tested alternatively on the same antenna of female and male weevils. Solvents and synthetic chemicals used in this investigation were ≧97% pure and acquired from Aldrich, Fisher Scientific, Fluka, and Sigma. Nomenclature of chemicals in the text follows that employed by NIST (http://webbook.nist.gov/chemistry/). One microliter of each solution was deposited on a small filter paper strip (0.8×2 cm; Whatman) that was inserted into a Pasteur pipette (cartridge) after solvent evaporation. The tip of the pipette was introduced via a hole in the wall of the stainless steel tube at 3 cm from the preparation. An air current (0.5 s duration, 50 cm/s airspeed; Air Velocity Meter 441S, Kurtz Instruments, USA) swept the chemicals evaporating from the filter paper from the cartridge (Stimulus Controller CS-05, Syntech) to the air-stream in which the antenna was bathed. Interstimulus time intervals of 2-3 min allowed for recovery of the antennal receptors. To allow for changes in sensitivity of an antenna preparation over time, stimulation with a standard compound preceded and followed each stimulus tested. A puff of 1 μg of (R)-(−)-linalool served as standard for EAGs with cis-3-hexen-1-ol and trans-2-hexen-1-ol, and 1 μg of cis-3-hexen-1-ol for EAGs with other compounds. A solvent control consisted of 1 μl of hexane on filter paper. EAGs were standardized by calculating the percent response of the experimental odorant relative to the mean of two responses to the standard preceding and following its presentation.
# (§1) Statistical analysis: EAGs between (±)-linalool and (R)-(−)-linalool as well as between (R)-(+)-citronellal and (S)-(−)-citronellal on the same antenna were compared using the paired Wilcoxon test (Sokal, R. R., and F. J. Rohlf, Biometry, 3rd ed. Freeman, New York (1995)). Relative and absolute proportions of volatiles released by undamaged and damaged citrus leaves were also compared using the paired Wilcoxon test. Insect choices between test and control T-track olfactometer extremes were assessed for significant differences by the hypothesis on binomial proportions based on the standard normal approximation (Brase, C. H., and C. P. Brase, Understanding statistics, 1983, DC Health and Co, Lexington, Mass.). Other behaviors were analyzed using the paired Wilcoxon test and Chi-square test. Statistical analysis was performed using R (version 2.4.0, Vienna, Austria; Ihaka, R., and R. […], J. Comput. Graph. Stat., 5: 299-314 (1996)).
# [1] = system: D. abbreviatus male antenna; test: Gas chromatography-linked electroantennogram detection (GC-EAD); set-up: species or system Diaprepes abbreviatus; conditions: for antennal response (EAD) to constituents of citrus leaf headspace: SPME collection of citrus leaf volatiles, HP-5 column
# Description: Gas chromatography-linked electroantennogram detection (GC-EAD): The antenna of the insect was employed as a detector in tandem with a high resolution gas chromatography system (GC, Hewlett Packard, […]) as in Dickens (Dickens, J. C., Agr. Forest Entomol., 1: 47-54 (1999)) to locate biologically active constituents in volatile collections of plants and candidate chemicals. An adult weevil antenna was mounted between two glass capillaries. Silver wires were inserted into the ends of both glass capillaries. One glass capillary filled with 0.1 M NaCl served as recording electrode holding the tip of the flagellum. The other capillary filled with electrode gel (Spectra 360, Parker Laboratories, USA) served as ground electrode holding the proximal end of the pedicel. The antenna was bathed in a humidified air-stream (60% RH, 23±2° C.) delivered at 30 cm/s (Stimulus Controller CS-05, Syntech) via a stainless steel tube (5 mm internal diameter) whose outlet was approximately 0.5 cm from the preparation. The electrophysiological signal was amplified and conditioned prior to storage and analyses using a computer equipped with GC-EAD 2.3 software (Syntech). Samples were injected into the gas chromatograph with a septum-purged packed column injector and a flame ionization detector (FID) at 245° C. equipped with one of the following J&W Scientific capillary columns: stationary phase DB-[…], high polarity, film thickness 0.25 μm, length 30 m, i.d. 0.248 mm or HP-5, low polarity, film thickness 0.25 μm, length 30 m, i.d. 0.251 mm. After an initial temperature of 50° C., which was held for 2 min following injection, the temperature of the GC oven was increased at 15° C./min to 235° C., which was held for 8 min. The enantiomers of linalool present in the odor of citrus were separated for their identification using a β-cyclodextrin column (stationary phase HP-Chiral-20B, mid-polar polarity, film thickness 0.25 μm, length 30 m, i.d. 0.252 mm). Following the injection of the linalool enantiomers, the initial temperature of 50° C. was held for 2 min following injection and then increased at 3° C./min to 180° C. Carrier gas (He) flow was 50 cm/s. The effluent from the column was split using a Gerstel GraphPack-3D/2 splitter with a ratio of approximately 1 part to the FID and 4 parts to the electroantennogram detector (EAD). The latter was swept by the humidified air-stream to the electrophysiological preparation from a heated transfer line (Syntech) at 245° C. Volatiles that elicited responses on the antenna were identified by GC-MS (Dickens, J. C., et al., J. Exp. Biol., 4: 309-314 (2002)).
# D. abbreviatus adults = test: Open T-track dual choice olfactometer behavioral experiments; assay type: in vivo, Diaprepes abbreviatus; set-up: unit not given here; conditions: stereotyped behavior in T-track olfactometer
# Description: Behavioral experiments: An open T-track dual choice olfactometer described by Dickens (1999) was modified as follows. A container (diameter 11 cm, height 8 cm) with petrolatum on its border, to prevent the escape of insects that were placed in its interior, was placed at the bottom of the vertical “T”. As D. abbreviatus is reluctant to move for long periods (some times hours) after being manipulated, 20-30 insects of the same sex were placed in the container in order to increase chances of observing insects walking. When more than one insect started to climb the “T” tube, the experiment was discarded. Stereotyped behaviors performed by the weevil were recorded using a video camera (Digital Handycam DCR-TVR30).
# The following compounds diluted in 25 μl of mineral oil placed on a 4.25 cm filter paper (No. 2, Whatman, England) in a odour-delivery bottle were tested separately in the olfactometer (doses indicated in parenthesis): (±)-linalool (25 μg), (R)-(+)-citronellal (25 μg), carvacrol (25 μg) and cis-3-hexen-1-ol (25 μg). The following blends were also tested: (±)-linalool (25 μg)+carvacrol (2.5 μg) and (±)-linalool (25 μg)+carvacrol (2.5 μg)+cis-3-hexen-1-ol (25 μg). An equal amount of the mineral oil solvent on filter paper was placed in the other side of the olfactometer. In order to observe the behaviour of insects to solvent alone, mineral oil was placed in both odour-delivery bottles. Responses of forty insects (20 females and 20 males) were recorded for each stimulus.
# as §1
# [2] = at the injected amounts 1 ng and 10 ng
smiles,measurement,setting,value
C=CC(C)(O)CCC=C(C)C (racemic) [(±)-linalool],EAGs compared on the same antenna (enantiomer/racemate comparison),D. abbreviatus antennae; females,did not differ significantly
same,EAGs compared on the same antenna (enantiomer/racemate comparison),D. abbreviatus antennae; males,did not differ significantly
same,antennal response (EAD) to injected synthetic compound,[1]; 10 ng injected,persisted
same,hesitation,D. abbreviatus adults; females,80
same,reaching,D. abbreviatus adults; females,30
same,rectifying,D. abbreviatus adults; females,22.5
same,hesitation,D. abbreviatus adults; males,82.5
same,reaching,D. abbreviatus adults; males,52.5
same,rectifying,D. abbreviatus adults; males,25
CC(C)=CCCC(C)CC=O (racemic) [(±)citronellal],antennal response (EAD) to injected synthetic compound,"[1]; 1 ng injected, the lowest dose",disappeared
same,antennal response (EAD) to injected synthetic compound,[1]; 10 ng injected,persisted
CC(C)=CCC[C@@H](C)CC=O [(R)-(+)-citronellal],EAGs compared on the same antenna (enantiomer/racemate comparison),D. abbreviatus antennae; females,larger than for (S)-(−)-citronellal
same,EAGs compared on the same antenna (enantiomer/racemate comparison),D. abbreviatus antennae; males,larger than for (S)-(−)-citronellal
same,hesitation,D. abbreviatus adults; females,95
same,reaching,D. abbreviatus adults; females,62.5
same,rectifying,D. abbreviatus adults; females,15
same,hesitation,D. abbreviatus adults; males,85
same,reaching,D. abbreviatus adults; males,52.5
same,rectifying,D. abbreviatus adults; males,5
C=C[C@](C)(O)CCC=C(C)C [(R)-(−)-linalool],Mean EAG of the weevil antenna to the standard,D. abbreviatus antennae,1.750±0.311 mV
same,EAGs compared on the same antenna (enantiomer/racemate comparison),D. abbreviatus antennae; females,did not differ significantly
same,antenna sensory threshold,D. abbreviatus antennae; females,around 0.1 μg
same,EAGs compared on the same antenna (enantiomer/racemate comparison),D. abbreviatus antennae; males,did not differ significantly
same,antenna sensory threshold,D. abbreviatus antennae; males,around 0.1 μg
CC(C)=CCC[C@H](C)CC=O [(S)-(−)-citronellal],antenna sensory threshold,D. abbreviatus antennae; males,around 0.1 μg
Cc1ccc(C(C)C)cc1O [carvacrol],increase in EAG response from 1 to 10 μg in the stimulus cartridge,D. abbreviatus antennae,did not share such a pattern
same,EAG dose-response curve at the two higher stimulus loads,D. abbreviatus antennae; females,reached saturation
same,increase in EAGs in response to serial dilutions,"D. abbreviatus antennae; females, from 0.01 μg to 1 μg",more pronounced than for males
same,antenna sensory threshold,D. abbreviatus antennae; females,around 0.1 μg
same,EAG dose-response curve at the two higher stimulus loads,D. abbreviatus antennae; males,continued to increase
same,antennal response (EAD) to injected synthetic compound,[1]; [2],EAGs were recorded only for the two former chemicals
same,hesitation,D. abbreviatus adults; females,90
same,reaching,D. abbreviatus adults; females,45
same,rectifying,D. abbreviatus adults; females,32.5
same,hesitation,D. abbreviatus adults; males,95
same,reaching,D. abbreviatus adults; males,45
same,rectifying,D. abbreviatus adults; males,47.5
CC/C=C\CCO [cis-3-hexen-1-ol],Mean EAG of the weevil antenna to the standard,D. abbreviatus antennae,1.605±0.200 mV
same,antenna sensory threshold,D. abbreviatus antennae; females,around 0.1 μg
same,antenna sensory threshold,D. abbreviatus antennae; males,around 0.1 μg
same,antennal response (EAD) to injected synthetic compound,[1]; [2],EAGs were recorded
same,hesitation,D. abbreviatus adults; females,75
same,reaching,D. abbreviatus adults; females,12.5
same,rectifying,D. abbreviatus adults; females,10
same,hesitation,D. abbreviatus adults; males,85
same,reaching,D. abbreviatus adults; males,30
same,rectifying,D. abbreviatus adults; males,12.5
"CC(C)=CCC/C(C)=C\C=O [cis-citral, cis-citral (neral)]",antennal response (EAD) to injected synthetic compound,[1]; [2],no responses
"CC(C)=CCCC(C)=CC=O [citral (cis and trans), citral]",antenna sensory threshold,D. abbreviatus antennae; females,around 0.1 μg
same,antenna sensory threshold,D. abbreviatus antennae; males,around 0.1 μg
CC(C)=CCCC(C)CC=O (centres unmarked) [citronellal],antennal response (EAD) to constituents of citrus leaf headspace,[1],EAGs were recorded
C=CC(C)(O)CCC=C(C)C (centres unmarked) [linalool],antennal response (EAD) to constituents of citrus leaf headspace,[1],EAGs were recorded
"CC(C)=CCC/C(C)=C\CO [nerol, cis-geraniol (nerol)]",increase in EAG response from 1 to 10 μg in the stimulus cartridge,D. abbreviatus antennae,did not share such a pattern
same,antennal response (EAD) to constituents of citrus leaf headspace,[1],EAGs were recorded
same,antennal response (EAD) to injected synthetic compound,[1]; [2],no responses
CCC/C=C/CO [trans-2-hexen-1-ol],antenna sensory threshold,D. abbreviatus antennae; females,around 0.1 μg
same,antenna sensory threshold,D. abbreviatus antennae; males,around 0.1 μg
same,antennal response (EAD) to injected synthetic compound,[1]; [2],EAGs were recorded
"CC(C)=CCC/C(C)=C/C=O [trans-citral, trans-citral (geranial)]",antennal response (EAD) to constituents of citrus leaf headspace,[1],EAGs were recorded
same,antennal response (EAD) to injected synthetic compound,[1]; [2],no responses
CC(C)=CCC/C(C)=C/CO [trans-geraniol],increase in EAG response from 1 to 10 μg in the stimulus cartridge,D. abbreviatus antennae,did not share such a pattern
same,increase in magnitude of EAGs with increments in amount dosed in the stimulus cartridge,D. abbreviatus antennae; females,EAG increase was not pronounced
same,antenna sensory threshold,D. abbreviatus antennae; females,around 0.1 μg
same,increase in magnitude of EAGs with increments in amount dosed in the stimulus cartridge,D. abbreviatus antennae; males,no significant increases
same,antennal response (EAD) to injected synthetic compound,[1]; [2],no responses
